According to PMC3551932, “STK295900, a Dual Inhibitor of Topoisomerase 1 and 2, Induces G2 Arrest in the Absence of DNA Damage” (PLoS ONE, 2013):
pIC50: −log10 of the molar value.

Assays:
HeLa cells [1] = assay: Cell growth inhibition assay, HeLa; format: cell-based, human; settings: Table 2 comparison, growth up to 4 days
From the text: (§1) Human epitheloid cervical carcinoma HeLa cells, human breast adenocarcinoma MCF7 and MDA-MB-231cells, human hepatocellular carcinoma HepG2 cells, human colon adenocarcinoma HT-29 cells, and human colorectal carcinoma HCT-116 cells were purchased from ATCC® and maintained in DMEM medium. Human prostate carcinoma PC-3 cells (purchased from ATCC®), human gastric carcinoma SNU-484 and SNU-601(obtained from Korean Cell Line Bank (KCLB)), human leukemia K-562 and HL-60 cells (purchased from ATCC®), immortalized human prostate epithelial 267B1cells, and immortalized human embryonic lung fibroblast MRC5CV1 cells were maintained in RPMI 1640 medium whereas immortalized retinal pigment epithelial hTERT RPE-1 cells (purchased from ATCC®) were maintained in DMEM/F12 medium. All cell lines were cultured in media supplemented with 10% fetal bovine serum, 100 U/ml penicillin, and […] streptomycin at 37°C in a 5% CO2 incubator.
(§2) Cells were seeded at the appropriate amount (1–2×10^3 cells) in triplicate in 96-well plates for 24 h and then treated with various concentrations of STK295900. Cell growth was determined by using EZ-CyTox cell viability assay kit (Daeil Lab. Service, Seoul, Korea). Ten microliters of WST solution were added to the treated cells at 24, 48, 72, and 96 h. Cells were further incubated at 37°C for 2 h and the absorbance was measured at 450 nm.

MCF7 cells = assay: Cell growth inhibition assay, MCF7; format: cell-based, human; settings: Table 2 comparison, MCF7, growth up to 4 days
From the text: as §1, §2

HepG2 cells = assay: Cell growth inhibition assay, HepG2; format: cell-based, human; settings: Table 2 comparison, HepG2, growth up to 4 days
From the text: as §1, §2

HT-29 cells = assay: Cell growth inhibition assay, HT-29; format: cell-based, human; settings: Table 2 comparison, HT-29, growth up to 4 days
From the text: as §1, §2

hTERT RPE-1 cells = assay: Cell growth inhibition assay, hTERT RPE-1; format: cell-based, human; settings: Table 2 comparison, hTERT RPE-1, non-cancer, growth up to 4 days
From the text: as §1, §2

267B1 cells = assay: Cell growth inhibition assay, 267B1; format: cell-based, human; settings: Table 2 comparison, 267B1, non-cancer, growth up to 4 days
From the text: as §1, §2

MRC5CV1 cells = assay: Cell growth inhibition assay, MRC5CV1; format: cell-based, human; settings: Table 2 comparison, MRC5CV1, non-cancer, growth up to 4 days
From the text: as §1, §2

human topoisomerase 2α = human topoisomerase 2α (Homo sapiens, UniProt P11388); assay: Supercoiled DNA relaxation assay for topoisomerase 2α; format: biochemical; settings: pBR322, 37°C, 30 min
Method: After incubation, the reaction was terminated by addition of 2 µl of 10% SDS. The reaction mixtures were treated with 50 µg/ml proteinase K for 30 min at 37°C and then DNA was extracted with CIA (chloroform:isoamyl alcohol, 24∶1). Samples were resolved by electrophoresis on a 1% agarose gel. After staining the electrophoresed gel with ethidium bromide, DNA bands were visualized by UV light and photographed on Gel Doc XR.
(§3) Supercoiled DNA relaxation assay for (A) topoisomerase 1 (Top 1) and (B) topoisomerase 2 (Top 2). Supercoiled pBR322 plasmid DNA was incubated at 37°C for 30 min with Top 1 enzyme (A) or Top 2α (B) in the presence of various concentrations of indicated compounds. DNA samples were separated by electrophoresis on a 1% agarose gel, stained with ethidium bromide, and visualized by UV light. (−), supercoiled DNA alone; oc, open circular; sc, supercoiled. […] HeLa cells were pretreated with 10 µM of STK295900 for 30 min and then incubated with the indicated concentrations of camptothecin for 1 h. Treated cells were lysed and subjected to immunoblot analyses with antibody against γ-H2A.X. β-actin was used as a loading control. […] HeLa cells were pretreated with STK295900 at 10, 20, 30, or 50 µM or ICRF-193 at 10 µM for 30 min. […] Treated cells were then lysed and subjected to immunoblot analyses with antibody against γ-H2A.X. β-actin was used as a loading control.

[2] = system: cancer (HeLa, MCF7, HepG2, and HT-29) and non-cancerous cell lines (hTERT RPE-1, 267B1, and MRC5CV1); assay: Cell growth inhibition assay, cancer and non-cancerous cell lines compared; format: cell-based, human
From the text: as §1, §2

HeLa cells [3] = assay: Immunoblot of cell cycle and DNA damage checkpoint proteins; format: cell-based, human; settings: 24 h, STK295900 1 or 5 µM, camptothecin 10 µM, etoposide 10 µM
Method: (§4) Cells were lysed with cold RIPA buffer (50 mM Tris-HCl pH 8.0, 150 mM NaCl, 1% NP-40, 0.5% sodium deoxycholate, 0.1% SDS) containing freshly added protease inhibitor, phosphatase inhibitor (SIGMA), 1 mM DTT, and 1 mM Na3VO4 on ice for 1 h. Whole cell lysates were centrifuged at 15,000 rpm for 20 min and then the supernatant was transferred into a new tube. An appropriate amount of cell lysate was subjected to SDS-PAGE. Then the resolved proteins were transferred onto a PVDF membrane (Bio-Rad) for immunoblot analyses with specific antibodies. The proteins were detected using chemiluminescence solution (Thermo Scientific, Rockford, IL).
(A) Flow cytometric analysis for cell cycle distribution. HeLa cells were treated with the indicated concentrations of STK295900 for 24 h. Treated cells were then stained with propidium iodide (PI) and processed for cell cycle analysis. The bar graph represents the mean percentage of each cell cycle phase ± SD from three independent experiments. * = p<0.05 versus the respective G1, S, or G2/M phase of DMSO-treated cells. (B) Mitotic index of STK295900. HeLa cells were treated with the indicated concentrations of STK295900 for 24 h. Cells were then stained with Hoechst 33342 and mitotic cells were counted. […] (C) Cell cycle related proteins expression. […] Treated cells were lysed and subjected to immunoblot analyses with antibodies against cyclin A, cyclin B1, phospho-Histone H3 (S10), and Histone H3. β-actin was used as a loading control.
(A) G2/M transition regulated proteins expression. […] GAPDH was used as a loading control. (B) DNA damage-checkpoint related proteins. […] Images were analyzed on a fluorescence microscope.

[4] = biological target: T1, calf thymus topoisomerase 1 (Bos taurus, UniProt F1MN93); assay: Supercoiled DNA relaxation assay for topoisomerase 1; format: biochemical
T1 construct: purified calf thymus topoisomerase 1; purchased Takara Bio, Shiga, Japan; host or cells: calf thymus (tissue-purified)
T1 sequence (F1MN93 1-767): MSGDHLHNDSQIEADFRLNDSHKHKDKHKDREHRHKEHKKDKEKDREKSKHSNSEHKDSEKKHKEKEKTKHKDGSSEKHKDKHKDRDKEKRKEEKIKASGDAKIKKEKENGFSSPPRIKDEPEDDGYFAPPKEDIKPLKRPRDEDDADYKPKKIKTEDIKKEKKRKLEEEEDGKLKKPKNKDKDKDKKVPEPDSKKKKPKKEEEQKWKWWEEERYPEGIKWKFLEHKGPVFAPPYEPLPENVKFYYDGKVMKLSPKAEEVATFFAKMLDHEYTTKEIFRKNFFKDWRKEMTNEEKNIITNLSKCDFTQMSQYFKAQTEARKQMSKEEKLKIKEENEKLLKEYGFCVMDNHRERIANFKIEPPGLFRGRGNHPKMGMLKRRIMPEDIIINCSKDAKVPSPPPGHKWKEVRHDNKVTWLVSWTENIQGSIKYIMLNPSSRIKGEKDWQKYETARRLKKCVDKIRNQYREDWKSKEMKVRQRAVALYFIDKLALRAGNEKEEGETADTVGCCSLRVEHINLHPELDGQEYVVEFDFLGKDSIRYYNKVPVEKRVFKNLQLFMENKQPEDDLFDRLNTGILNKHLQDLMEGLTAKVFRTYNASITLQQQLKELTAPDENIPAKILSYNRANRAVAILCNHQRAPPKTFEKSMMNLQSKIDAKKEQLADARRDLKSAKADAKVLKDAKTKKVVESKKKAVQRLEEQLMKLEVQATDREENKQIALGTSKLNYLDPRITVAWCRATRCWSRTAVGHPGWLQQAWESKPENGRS

HeLa cells [5] = assay: Antagonistic effect on Top poison-induced DNA damage (γ-H2A.X immunoblot); format: cell-based, human; settings: DMSO pretreated, 10 µM or 30 µM, 1 h
Method: as §4, §3
The lysates were subjected to immunoblot analyses with γ-H2A.X antibody.

human topoisomerase 2α, sequence (P11388 whole entry): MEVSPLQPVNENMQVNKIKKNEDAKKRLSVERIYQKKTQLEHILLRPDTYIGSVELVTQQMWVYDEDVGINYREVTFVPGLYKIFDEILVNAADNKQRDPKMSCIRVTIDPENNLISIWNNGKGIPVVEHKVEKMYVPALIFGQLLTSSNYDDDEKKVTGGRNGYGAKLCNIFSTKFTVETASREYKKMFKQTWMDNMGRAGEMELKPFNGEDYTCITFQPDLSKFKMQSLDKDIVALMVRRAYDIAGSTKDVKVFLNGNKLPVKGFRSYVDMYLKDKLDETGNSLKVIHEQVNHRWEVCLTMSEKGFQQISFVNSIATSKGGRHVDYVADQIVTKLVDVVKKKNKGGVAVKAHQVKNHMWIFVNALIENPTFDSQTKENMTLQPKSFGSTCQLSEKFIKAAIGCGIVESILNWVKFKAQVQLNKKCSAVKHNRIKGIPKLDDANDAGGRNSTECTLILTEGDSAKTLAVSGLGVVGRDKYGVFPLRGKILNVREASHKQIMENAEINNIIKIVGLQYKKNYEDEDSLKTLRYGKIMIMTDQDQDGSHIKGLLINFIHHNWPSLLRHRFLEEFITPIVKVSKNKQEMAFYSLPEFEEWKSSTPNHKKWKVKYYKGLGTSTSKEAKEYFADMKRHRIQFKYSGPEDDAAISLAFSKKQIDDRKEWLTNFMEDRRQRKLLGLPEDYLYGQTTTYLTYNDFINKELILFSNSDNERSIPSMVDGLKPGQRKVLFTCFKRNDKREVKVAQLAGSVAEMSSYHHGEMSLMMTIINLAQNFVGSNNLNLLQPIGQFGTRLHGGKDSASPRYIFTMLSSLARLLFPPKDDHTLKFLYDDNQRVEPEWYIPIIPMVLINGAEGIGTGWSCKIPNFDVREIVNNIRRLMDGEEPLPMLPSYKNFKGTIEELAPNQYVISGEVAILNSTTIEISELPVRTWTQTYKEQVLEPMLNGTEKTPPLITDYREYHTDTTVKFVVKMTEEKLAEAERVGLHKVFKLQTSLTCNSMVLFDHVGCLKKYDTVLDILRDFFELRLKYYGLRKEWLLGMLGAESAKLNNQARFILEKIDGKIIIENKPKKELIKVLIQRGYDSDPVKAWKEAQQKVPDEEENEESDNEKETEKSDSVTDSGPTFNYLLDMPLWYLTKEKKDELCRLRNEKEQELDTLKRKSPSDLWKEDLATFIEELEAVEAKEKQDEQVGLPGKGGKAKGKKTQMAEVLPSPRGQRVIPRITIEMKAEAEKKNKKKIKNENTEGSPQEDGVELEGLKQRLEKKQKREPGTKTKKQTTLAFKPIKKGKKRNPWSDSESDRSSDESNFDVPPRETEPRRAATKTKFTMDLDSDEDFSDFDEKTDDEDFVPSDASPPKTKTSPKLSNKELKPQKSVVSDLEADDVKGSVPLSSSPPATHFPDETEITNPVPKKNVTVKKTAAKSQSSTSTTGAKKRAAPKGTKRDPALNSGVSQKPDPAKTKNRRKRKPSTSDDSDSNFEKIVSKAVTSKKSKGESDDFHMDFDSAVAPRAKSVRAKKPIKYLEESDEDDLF

| Compound | pIC50 (HeLa cells [1]; Homo sapiens, 96 h) | pIC50 (MCF7 cells; Homo sapiens, MCF7, 96 h) | pIC50 (HepG2 cells; Homo sapiens, HepG2, 96 h) | pIC50 (HT-29 cells; Homo sapiens, HT-29, 96 h) | pIC50 (hTERT RPE-1 cells; Homo sapiens, hTERT-RPE1, 96 h) | pIC50 (267B1 cells; Homo sapiens, 96 h) | pIC50 (MRC5CV1 cells; Homo sapiens, 96 h) | Top 2α-mediated DNA relaxation (human topoisomerase 2α) | Phosphorylation of Cdk1 at T161 (HeLa cells [3]; nocodazole 200 ng/ml) | Wee1 and Cdc25C levels (HeLa cells [3]; nocodazole 200 ng/ml) | cyclin A and cyclin B1 levels (HeLa cells [3]; nocodazole 200 ng/ml) | inhibitory phosphorylation of Cdk1 (T14 and Y15) (HeLa cells [3]; nocodazole 200 ng/ml) | further results |
| --- | --- | --- | --- | --- | --- | --- | --- | --- | --- | --- | --- | --- | --- |
| COc1cc([C@@H]2c3cc4c(cc3[C@@H](O[C@@H]3O[C@@H]5CO[C@@H](C)O[C@H]5[C@H](O)[C@H]3O)[C@H]3COC(=O)[C@H]23)OCO4)cc(OC)c1O [Etoposide] | 6.52 | 4.88 | 6.08 | 4.99 | 6.35 | 6.41 | 5.89 | inhibited Top 2α activity by reducing the relaxed DNA and increasing nicked-open-circular DNA |  |  |  |  |  |
| CC[C@@]1(O)C(=O)OCc2c1cc1n(c2=O)Cc2cc3ccccc3nc2-1 [Camptothecin] | 7.70 | 7.52 | 7.70 | 7.52 | > 8.00 | > 8.00 | 7.70 |  | strongly enhanced | reduction of Cdc25C | accumulations of cyclin A and cyclin B1 | abundance | pIC50 ([2]; Homo sapiens, all cell lines tested (HeLa, MCF7, HepG2, HT-29, hTERT RPE-1, 267B1, MRC5CV1)): > 7.52; p53 and p21 levels (HeLa cells [3]): significantly increased; phosphorylation-dependent activation of ATM (S1981), ATR (S428), Chk1 (S345), and Chk2 (T68) (HeLa cells [3]): activation of ATM, Chk1, and Chk2; Top 1-mediated DNA relaxation [4]: inhibited DNA relaxation activity of Top 1 in a dose-dependent manner; γ-H2A.X induction in control cells (immunoblot) (HeLa cells [5]): strongly induced γ-H2A.X |
| ICRF-193 |  |  |  |  |  |  |  | accumulation of supercoiled DNA |  |  |  |  |  |
| COC(=O)Nc1nc2ccc(C(=O)c3cccs3)cc2[nH]1 [nocodazole] |  |  |  |  |  |  |  |  | strongly enhanced | undetectable levels of Wee1 but activation of Cdc25C | high level of cyclin B1 and undetectable level of cyclin A | could not be detected | Histone H3 phosphorylation at S10 (HeLa cells [3]; nocodazole 200 ng/ml): detected only in cells treated with nocodazole |
| CCOc1ccc(-c2nc3ccc(-c4nc5ccc(N6CCN(C)CC6)cc5[nH]4)cc3[nH]2)cc1 [Hoechst 33342] |  |  |  |  |  |  |  |  |  |  |  |  | pIC50 (HeLa cells [1]): 5.34; pIC50 (MCF7 cells): 6.70; pIC50 (HepG2 cells): 6.66; pIC50 (HT-29 cells): 6.19; pIC50 (hTERT RPE-1 cells): 6.00; pIC50 (267B1 cells): 6.08; pIC50 (MRC5CV1 cells): 6.46; selectivity of toxicity, cancer versus non-cancer cells ([2]; cancer (HeLa, MCF7, HepG2, HT-29) vs non-cancer (hTERT RPE-1, 267B1, MRC5CV1)): diverse and non-selective against cancer cells |
